{"source": "patent US20210322417A1", "about": "“GASTRIC CANCER TREATMENTS” (The Jackson Laboratory, priority 2018, published 2021)", "key": {"N87-PTEN−/− tumors": {"system": "N87-PTEN−/− tumors", "assay": "Xenograft tumor model, N87-PTEN−/−", "conditions": "lapatinib dosing test, three weeks of treatment, compared to N87-WT"}, "HER2-amplified GC": {"system": "HER2-amplified GC", "conditions": "HER2-positive GC patients, clinical trial data; cited from earlier work"}, "N87-WT tumors": {"system": "N87-WT tumors", "assay": "Xenograft tumor model, N87-WT", "type": "in vivo, mice", "conditions": "lapatinib dosing test, three weeks of treatment", "source_text": "Tumors were induced by injecting N87-WT. […] Drug treatment was initiated when tumors reached a volume of 150-250 mm^3. Mice were randomly divided into seven treatment groups including 8-10 mice in each group: 1) vehicle only, 2) lapatinib only, 3) lapatinib+trametinib, 4) lapatinib+copanlisib, 5) trametinib+copanlisib, 6) lapatinib+trametinib+copanlisib, and 7) 5-FU."}, "N87-CSK−/− tumors": {"system": "N87-CSK−/− tumors", "conditions": "lapatinib dosing test, three weeks of treatment; N87-CSK−/− xenograft, compared to N87-WT"}, "[1]": {"system": "OE19 cells transduced with non-targeting gRNA", "assay": "Caspase-Glo 3/7 apoptosis assay, control cells", "type": "cell-based, human", "conditions": "Lapatinib 48 h treatment", "method": "(§1) We examined apoptosis induced by Lapatinib treatment in CSK or PTEN null cells as well as the control cells by measuring caspase-3/7 activation (Caspase-Glo assay).\n(§2) Caspase activity was detected by using Caspase-Glo 3/7 assay kit (Promega). Briefly. The GC cells were seeded in 96-well white luminometer assay plates at a density of 4,000 cells per well and incubated at 37° C. Cells were treated with Lapatinib for 48 h, 100 ul caspase 3/7 reagents were added to each well and incubated for 1 h on rotary shaker at room temperature. The luminescence intensity was measured using a multi-label plate reader (SpectraMax M5, Molecular Devices)."}, "CSK null OE19 cells [2]": {"system": "CSK null OE19 cells", "assay": "Caspase-Glo 3/7 apoptosis assay, CSK null cells", "type": "cell-based, human", "conditions": "Lapatinib 48 h treatment", "method": "as §1, §2"}, "CSK null OE19 cells [3]": {"system": "CSK null OE19 cells", "assay": "CellTiter-Glo cell viability assay, CSK null OE19", "type": "cell-based, human", "conditions": "6 days", "quoted_text": "(§3) Then N87 and OE19 cells were infected with the corresponding viruses and the Lapatinib resistance was examined by treating the cells with indicated doses of Lapatinib for 6 days. Cell viability assay was performed as described below at the end of treatment.\n(§4) For the cell viability assays, 4,000 cells/each well in a 96-well plate were treated with indicated drugs for 6 days and cell viabilities were measured using the CellTiter-Glo® luminescent cell viability assay kit according to the manufacturer's instructions (Promega). The luminescence intensity was measured using a multi-label plate reader (SpectraMax M5, Molecular Devices). The cell viabilities were calculated as relative values compared to the untreated controls."}, "PTEN null OE19 cells [4]": {"system": "PTEN null OE19 cells", "assay": "Caspase-Glo 3/7 apoptosis assay, PTEN null cells", "type": "cell-based, human", "conditions": "Lapatinib 48 h treatment", "method": "as §1, §2"}, "PTEN null OE19 cells [5]": {"system": "PTEN null OE19 cells", "assay": "CellTiter-Glo cell viability assay, PTEN null OE19", "type": "cell-based, human", "conditions": "6 days", "quoted_text": "as §3, §4"}, "[6]": {"system": "OE19 cells transduced with non-targeting gRNA", "assay": "CellTiter-Glo cell viability assay, control OE19", "type": "cell-based, human", "conditions": "indicated doses of the agent in combination with 0.05 μM Lapatinib, 6 days", "source_text": "Viral particles were generated as described above."}, "[7]": {"conditions": "0.1 μM of the agent in combination with 0.05 μM Lapatinib"}, "[8]": {"conditions": "indicated doses of the agent in combination with 0.05 μM Lapatinib"}, "[9]": {"conditions": "AZD0530 at highest concentration (1 μM) in combination with 0.05 μM Lapatinib"}}, "data": [{"compound": "CS(=O)(=O)CCNCc1ccc(-c2ccc3ncnc(Nc4ccc(OCc5cccc(F)c5)c(Cl)c4)c3c2)o1", "note": "[Lapatinib]", "values": [{"measurement": "tumor sensitivity to treatment", "setting": "N87-PTEN−/− tumors", "result": "resistant to lapatinib treatment"}, {"measurement": "survival", "setting": "HER2-amplified GC", "result": "failed to improve survival"}, {"measurement": "tumor sensitivity to treatment", "setting": "N87-WT tumors", "result": "sensitive to lapatinib treatment"}, {"measurement": "tumor sensitivity to treatment", "setting": "N87-CSK−/− tumors", "result": "relatively insensitive to lapatinib"}, {"measurement": "fold of caspase-3/7 activity compared with vehicle treated cells", "setting": "[1]", "result": "3.79±0.16", "unit": "fold"}, {"measurement": "fold of caspase-3/7 activity compared with vehicle treated cells", "setting": "CSK null OE19 cells [2]", "result": "1.55±0.16", "unit": "fold"}, {"measurement": "effect on cell growth", "setting": "CSK null OE19 cells [3]; 0.05 μM Lapatinib alone", "result": "could not inhibit the growth"}, {"measurement": "fold of caspase-3/7 activity compared with vehicle treated cells", "setting": "PTEN null OE19 cells [4]", "result": "1.50±0.10", "unit": "fold"}, {"measurement": "effect on cell growth", "setting": "PTEN null OE19 cells [5]; 0.05 μM Lapatinib alone", "result": "could not inhibit the growth"}]}, {"compound": "COc1c(OCCCN2CCOCC2)ccc2c1N=C(NC(=O)c1cnc(N)nc1)N1CCN=C21", "note": "[Copanlisib]", "values": [{"measurement": "effect on cell growth", "setting": "[6]", "result": "inhibited the cell growth"}, {"measurement": "effect on cell growth", "setting": "CSK null OE19 cells [3]; [7]", "result": "significantly inhibited the cell growth, but not completely"}, {"measurement": "effect on cell growth/viability", "setting": "CSK null OE19 cells [3]; [8]", "result": "inhibited the cell growth"}, {"measurement": "effect on cell growth", "setting": "PTEN null OE19 cells [5]; [7]", "result": "significantly inhibited the cell growth, but not completely"}, {"measurement": "effect on cell growth/viability", "setting": "PTEN null OE19 cells [5]; [8]", "result": "inhibited the cell growth"}]}, {"compound": "CN1CCN(CCOc2cc(OC3CCOCC3)c3c(Nc4c(Cl)ccc5c4OCO5)ncnc3c2)CC1", "note": "[AZD0530, Saracatinib]", "values": [{"measurement": "cells survived", "setting": "CSK null OE19 cells [3]; [9]", "result": "9.15±0.88", "unit": "%"}, {"measurement": "cells survived", "setting": "PTEN null OE19 cells [5]; [9]", "result": "42.49±2.54", "unit": "%"}]}]}
